# Reference: patent US12281080B2, “Quinoline-based compounds and methods of inhibiting CDK8/19” (University of South Carolina, priority 2018, dated 2025)
# Key:
# NEK9 = NEK9 (Homo sapiens (Human), UniProt Q8TD19); assay: KINOMEscan scanMAX; type: binding; conditions: 2000 nM; read-out: Percent Control
# GSK3B = GSK3B (Homo sapiens (Human), UniProt P49841); assay: KINOMEscan scanMAX; type: binding; conditions: 2000 nM; read-out: Percent Control
# ACVR1B = ACVR1B (Homo sapiens (Human), UniProt P36896); assay: KINOMEscan scanMAX; type: binding; conditions: 2000 nM; read-out: Percent Control
# Sequence of ACVR1B (P36896 24-505): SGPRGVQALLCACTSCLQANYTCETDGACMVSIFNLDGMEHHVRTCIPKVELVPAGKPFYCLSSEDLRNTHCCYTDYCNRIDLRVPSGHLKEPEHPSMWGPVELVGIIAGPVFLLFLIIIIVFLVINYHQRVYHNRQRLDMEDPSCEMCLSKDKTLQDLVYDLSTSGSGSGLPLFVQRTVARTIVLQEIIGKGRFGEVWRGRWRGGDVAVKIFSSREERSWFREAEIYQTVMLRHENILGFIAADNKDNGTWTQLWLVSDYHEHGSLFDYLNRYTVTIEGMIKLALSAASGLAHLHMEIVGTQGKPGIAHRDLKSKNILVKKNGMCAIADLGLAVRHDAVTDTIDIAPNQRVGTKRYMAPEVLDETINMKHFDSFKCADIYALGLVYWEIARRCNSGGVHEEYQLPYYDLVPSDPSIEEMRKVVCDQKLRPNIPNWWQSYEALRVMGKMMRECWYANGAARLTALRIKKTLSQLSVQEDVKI
# [1] = test system: 4T1 murine triple-negative breast cancer; assay: 4T1 breast cancer metastasis survival model; type: in vivo; conditions: 40 mg/kg, oral, b.i.d., female Balb/c mice after primary tumor removal
# Protocol: 4T1 is a murine triple-negative breast cancer (TNBC) cell line, which is highly metastatic to the lungs. 4T1 cells were injected orthotopically in the mammary fat pad of female Balb/c mice and the primary tumors were surgically removed when tumor sizes reach 500-600 mm^3. Mice were then separated into two groups (FIG. 12A, n=8), which were then treated with vehicle (5% dextrose) or Senexin C (40 mg/kg, oral, b.i.d.).
# Sequence of NEK9 (Q8TD19 whole entry): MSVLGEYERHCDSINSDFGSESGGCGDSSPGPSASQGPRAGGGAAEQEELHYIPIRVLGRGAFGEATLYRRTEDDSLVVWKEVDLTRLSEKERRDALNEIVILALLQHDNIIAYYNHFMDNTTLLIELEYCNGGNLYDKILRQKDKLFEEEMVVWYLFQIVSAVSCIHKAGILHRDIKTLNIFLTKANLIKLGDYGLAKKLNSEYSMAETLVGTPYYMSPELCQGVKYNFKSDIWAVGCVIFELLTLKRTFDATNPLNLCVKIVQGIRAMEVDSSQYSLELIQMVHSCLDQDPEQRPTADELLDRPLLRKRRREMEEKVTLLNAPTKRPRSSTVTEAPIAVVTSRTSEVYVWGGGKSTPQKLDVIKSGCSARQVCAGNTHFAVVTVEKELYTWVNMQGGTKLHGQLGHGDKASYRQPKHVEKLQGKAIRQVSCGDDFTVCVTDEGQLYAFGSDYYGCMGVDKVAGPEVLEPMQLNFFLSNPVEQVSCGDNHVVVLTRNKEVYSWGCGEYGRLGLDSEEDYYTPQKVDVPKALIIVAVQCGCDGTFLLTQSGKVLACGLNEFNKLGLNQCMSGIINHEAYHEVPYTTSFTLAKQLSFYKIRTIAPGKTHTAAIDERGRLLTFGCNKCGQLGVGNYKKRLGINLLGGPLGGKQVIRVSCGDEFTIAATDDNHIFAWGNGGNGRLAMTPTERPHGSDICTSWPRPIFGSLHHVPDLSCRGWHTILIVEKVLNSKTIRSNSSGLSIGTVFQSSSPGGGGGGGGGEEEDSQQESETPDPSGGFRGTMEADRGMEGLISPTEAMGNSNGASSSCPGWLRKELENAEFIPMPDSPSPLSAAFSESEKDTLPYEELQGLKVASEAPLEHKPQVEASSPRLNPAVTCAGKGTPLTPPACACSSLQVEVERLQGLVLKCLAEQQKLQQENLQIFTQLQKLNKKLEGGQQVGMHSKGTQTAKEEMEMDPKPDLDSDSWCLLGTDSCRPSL
# Sequence of GSK3B (P49841 whole entry): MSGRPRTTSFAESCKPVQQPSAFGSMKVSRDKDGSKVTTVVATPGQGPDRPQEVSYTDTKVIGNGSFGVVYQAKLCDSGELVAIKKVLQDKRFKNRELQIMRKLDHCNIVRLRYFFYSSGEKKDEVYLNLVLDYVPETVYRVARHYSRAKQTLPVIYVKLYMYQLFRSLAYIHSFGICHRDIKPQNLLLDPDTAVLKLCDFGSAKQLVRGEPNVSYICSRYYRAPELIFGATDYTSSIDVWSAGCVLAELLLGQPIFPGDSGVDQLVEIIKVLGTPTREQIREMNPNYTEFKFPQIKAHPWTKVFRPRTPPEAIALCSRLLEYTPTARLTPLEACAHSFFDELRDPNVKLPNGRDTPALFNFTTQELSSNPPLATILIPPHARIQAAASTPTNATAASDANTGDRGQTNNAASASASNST
smiles,measurement,setting,value
"CN1CCN(C(=O)c2ccc3cc(CCNc4ccnc5ccc(C#N)cc45)ccc3c2)CC1 [compound 6148, 4-((2-(6-(4-methylpiperazine-1-carbonyl)naphthalen-2-yl)ethyl)amino)quinoline-6-carbonitrile]",remaining binding at 2 µM,NEK9,97%
same,remaining binding at 2 µM,GSK3B,67%
same,remaining binding at 2 µM,ACVR1B,92%
same,Mouse survival of the metastatic disease,[1],significantly increased
